# In article PMC10688702, “The indole motif is essential for the antitrypanosomal activity of N^5-substituted paullones” (PLOS ONE, 2023):
# System: trypanothione synthetase of T. b. brucei (TbTryS)
# Assay: TryS activity screening assay on recombinant TbTryS
# Format: biochemical
# Settings: % activity at 30 μM compound, errors 2 SD
# Description: TryS from different trypanosomatids was produced in recombinant form with an N-terminal His-tag. The constructs pET-15b TbTryS and pET-28c(+)LiTryS were used to express TryS of T. b. brucei 427 (MITat1.4, GenBank accession protein id CAC87573.1), and L. infantum JPCM5 (GenBank accession protein id CAM69145.1). E. coli strain BL21 (DE3) served as the expression host. For TbTryS, the cells were cultured in a medium based in Terrific Broth and induction with isopropyl 1-thio-β-D-galactopyranoside (IPTG), while for LiTryS, the cells were cultured in ZYM-5052 auto-induction medium. For a detailed description of the expression, see Benítez et al.. The purification was performed by immobilised metal affinity chromatography in a HisTrap Fast Flow column (GE Healthcare) followed by size exclusion chromatography. […] The fractions containing recombinant TryS with ≥95% purity were pooled and concentrated to >10 mg protein/mL using a 10 kDa cut-off Amicon filter (Millipore, Billerica, CA). Glycerol was added at a final concentration of 40% (v/v). The samples were stored at -80°C. Enzyme purity and activity were assessed by SDS-PAGE (12%) under reducing conditions and by the end-point TryS assay (see TryS activity screening assay), respectively. Protein concentration was determined using the bicinchoninic acid assay with bovine serum albumin as standard. The protocols yielded 25–30 mg TbTryS or LiTryS per litre of culture medium and homogeneous specific activity.
# For all TryS, ATP was used at 150 μM because of a high background signal at higher concentrations and Spd fixed at 2 mM, in agreement with the intracellular levels calculated from data reported in the literature for trypanosomatids. GSH was adjusted to 0.05 and 0.25 mM for TbTryS and LiTryS, respectively, to avoid substrate inhibition or to approach physiological concentrations. […] Microtiter plate wells were loaded with 5 μL of the test compound, DMSO (reaction control) or a TryS specific inhibitor (inhibition control) and 40 μL of MM solution. The reactions were then started by adding 5 μL of TryS (2 and 3*10^−5 μmol*min^-1*mL^-1 for LiTryS and TbTryS, respectively) and stopped after 15 min with 200 μL BIOMOL® GREEN reagent (Enzo Life Sciences). The compounds used as inhibition control were added at concentrations that inhibited 50% TryS activity: 30 μM and 150 nM MOL2008 for TbTryS and LiTryS, respectively. Blanks were prepared for each condition by adding 5 μL of screening reaction buffer instead of the enzyme. The TryS activity is calculated as follows: TrySactivity%=A650nmCi-A650nmCiB/A650nmE-A650nmEB*100%
# A650 nm Ci is the mean absorbance at 650 nm for the reaction test with compound I (Ci), A650 nm CiB is the mean absorbance at 650 nm for the blank control with compound I (CiB), A650 nm E is the mean absorbance at 650 nm for the reaction control with DMSO (E) and A650 nm EB is the mean absorbance at 650 nm for the blank control with DMSO (EB). The errors were expressed as 2 standard deviations (SD), SD estimated as σ^n−1.
row,SMILES,TbTryS activity [% at 30 μM]
1,"CNCCNC(=O)CN1C(=O)Cc2c([nH]c3ccc(I)cc23)-c2ccc(Cl)cc21 [1f, 2-(3-Chloro-9-iodo-6-oxo-7,12-dihydrobenzo[2,3]azepino[4,5-b]indol-5(6H)-yl)-N-[2-(methylamino)ethyl]acetamide]",82.9 ± 6.5%
2,"CNCCNC(=O)CN1C(=O)Cc2c([nH]c3ccc(Cl)cc23)-c2ccc(Cl)cc21 [1g, 2-(3,9-Dichloro-6-oxo-7,12-dihydrobenzo[2,3]azepino[4,5-b]indol-5(6H)-yl)-N-[2-(methylamino)ethyl]acetamide]",82.8 ± 5.9%
3,"CNCCNC(=O)CN1C(=O)Cc2c([nH]c3ccc(C(F)(F)F)cc23)-c2ccc(Cl)cc21 [1h, 2-(3-Chloro-6-oxo-9-trifluoromethyl-7,12-dihydrobenzo[2,3]azepino[4,5-b]indol-5(6H)-yl)-N-[2-(methylamino)ethyl]acetamide]",87.8 ± 4.6%
